Laboratory results taken from ChEMBL document CHEMBL4602703, “Lead Optimization of a Pyrrole-Based Dihydroorotate Dehydrogenase Inhibitor Series for the Treatment of Malaria” (J Med Chem, 2020).
Converted amounts (≈) assume the structure as drawn.

Key:
[1] = simulated gi fluid, pH 1.6
[2] = Oral bioavailability in Swiss mouse at 18.3 mg/kg dosed via gavage measured up to 24 hrs by UPLC-MS analysis; assay type: ADME, organism-based; settings: in vivo
[3] = buffer, pH 7.4
Cytochrome P450 2D6 = Cytochrome P450 2D6 (Homo sapiens, UniProt P10635); assay: Time-dependent inhibition of CYP2D6 in human liver microsomes using dextromethorphan as substrate in presence of NADPH regenerating system by UPLC-MS analysis; assay type: ADME
Chain of Cytochrome P450 2D6 (P10635 whole entry): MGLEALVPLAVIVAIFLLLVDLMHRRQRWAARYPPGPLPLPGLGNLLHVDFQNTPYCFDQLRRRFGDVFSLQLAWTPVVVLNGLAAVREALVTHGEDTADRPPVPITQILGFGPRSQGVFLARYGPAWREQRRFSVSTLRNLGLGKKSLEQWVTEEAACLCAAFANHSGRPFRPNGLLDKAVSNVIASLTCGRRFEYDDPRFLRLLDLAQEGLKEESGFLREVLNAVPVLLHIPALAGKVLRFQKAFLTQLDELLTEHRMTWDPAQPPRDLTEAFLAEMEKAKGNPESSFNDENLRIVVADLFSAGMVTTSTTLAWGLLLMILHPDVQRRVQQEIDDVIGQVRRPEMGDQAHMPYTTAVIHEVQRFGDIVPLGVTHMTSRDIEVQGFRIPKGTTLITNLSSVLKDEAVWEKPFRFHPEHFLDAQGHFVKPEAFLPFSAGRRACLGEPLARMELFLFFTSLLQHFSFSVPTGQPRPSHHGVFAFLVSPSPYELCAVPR

Cytochrome P450 2C9 = Cytochrome P450 2C9 (Homo sapiens, UniProt P11712); assay: Time-dependent inhibition of CYP2C9 in human liver microsomes using tolbutamide as substrate in presence of NADPH regenerating system by UPLC-MS analysis; assay type: ADME
Chain of Cytochrome P450 2C9 (P11712 whole entry): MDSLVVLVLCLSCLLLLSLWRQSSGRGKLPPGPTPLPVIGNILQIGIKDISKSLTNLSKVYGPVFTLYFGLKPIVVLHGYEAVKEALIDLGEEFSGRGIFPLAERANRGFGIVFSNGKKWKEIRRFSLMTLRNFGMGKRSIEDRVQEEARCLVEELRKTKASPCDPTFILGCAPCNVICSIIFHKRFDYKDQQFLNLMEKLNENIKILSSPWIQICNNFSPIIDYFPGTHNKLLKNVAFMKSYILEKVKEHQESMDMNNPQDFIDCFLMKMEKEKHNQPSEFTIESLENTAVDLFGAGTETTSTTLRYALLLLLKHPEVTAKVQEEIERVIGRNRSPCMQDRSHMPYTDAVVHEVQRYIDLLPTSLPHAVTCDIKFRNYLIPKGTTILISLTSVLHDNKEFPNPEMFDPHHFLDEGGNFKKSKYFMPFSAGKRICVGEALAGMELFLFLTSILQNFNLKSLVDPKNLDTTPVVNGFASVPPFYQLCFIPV

## Cc1c(Cc2ccc(C(F)(F)F)nc2)c[nH]c1C(=O)NC1CC1
[1]
  solubility: 46.4 µg/mL (≈ 144 µM)
[2]
  F: > 100%
[3]
  solubility: 45.6 µg/mL (≈ 141 µM)
Cytochrome P450 2D6
  TDI: Not Active
Cytochrome P450 2C9
  TDI: Not Active
